Key:
[1] = Cytotoxicity in mock-infected MT-4 cells, MTT method; assay type: cell-based; conditions: human, mock-infected MT-4 cells, CC50, mock-infected MT-4 cells
[2] = test system: HIV-1 mutant strain L100I; assay: microbe, parasite or virus in culture; assay type: cell-based; conditions: Human immunodeficiency virus 1, MT4, read-out: EC50 L100I
[3] = test system: HIV-1 mutant strain K103N; assay: microbe, parasite or virus in culture; assay type: cell-based; conditions: Human immunodeficiency virus 1, MT4, read-out: EC50 K103N
[4] = test system: HIV-1 mutant strain Y181C; assay: microbe, parasite or virus in culture; assay type: cell-based; conditions: Human immunodeficiency virus 1, MT4, read-out: EC50 Y181C
[5] = test system: HIV-1 mutant strain Y188L; assay: microbe, parasite or virus in culture; assay type: cell-based; conditions: Human immunodeficiency virus 1, MT4, read-out: EC50 Y188L
[6] = test system: HIV-1 mutant strain E138K; assay: microbe, parasite or virus in culture; assay type: cell-based; conditions: Human immunodeficiency virus 1, MT4, read-out: EC50 E138K
[7] = test system: HIV-1 mutant strain F227L + V106A; assay: microbe, parasite or virus in culture; assay type: cell-based; conditions: Human immunodeficiency virus 1, MT4, read-out: EC50 F227L + V106A
[8] = test system: HIV-1 mutant strain RES056 (K103N + Y181C); assay: microbe, parasite or virus in culture; assay type: cell-based; conditions: Human immunodeficiency virus 1, MT4, read-out: EC50 RES056
HIV-1 WT strain (IIIB) = assay: Anti-HIV activity against WT HIV-1; conditions: WT HIV-1 IIIB

| SMILES | CC50 at 5 days [1] [nM] | EC50 [2] [nM] | EC50 [3] [nM] | EC50 [4] [nM] | EC50 [5] [nM] | EC50 [6] [nM] | EC50 [7] [nM] | EC50 [8] [nM] | SI IIIB (CC50/EC50 ratio) (HIV-1 WT strain (IIIB)) |
| --- | --- | --- | --- | --- | --- | --- | --- | --- | --- |
| COc1ccc(S(=O)(=O)NCCCCCNC(=O)c2[nH]c3ccc(Cl)cc3c2S(=O)(=O)c2cc(C)cc(C)c2)cc1 [R2L5, 5-Chloro-3-((3,5-dimethylphenyl)sulfonyl)-N-(5-((4-methoxyphenyl)sulfonamido)pentyl)-1H-indole-2-carboxamide] | 110000 ± 7890 | 94 ± 47 | 570 | 190 ± 16 | 1280 ± 440 | 130 ± 49 | 280 ± 65 | > 110000 | 4772 |
| Cc1cc(C)cc(S(=O)(=O)c2c(C(=O)NCCCCCNS(=O)(=O)c3cccnc3)[nH]c3ccc(Cl)cc23)c1 [R10L5, 5-Chloro-3-((3,5-dimethylphenyl)sulfonyl)-N-(5-(pyridine-3-sulfonamido)pentyl)-1H-indole-2-carboxamide] | 41900 ± 2180 | 46 ± 14 | 190 ± 34 | 110 ± 22 | 730 ± 34 | 29 ± 12 | 140 ± 75 | 10600 ± 6700 | 5513 |
| COc1ccc(S(=O)(=O)NCCNC(=O)c2[nH]c3ccc(Cl)cc3c2S(=O)(=O)c2cc(C)cc(C)c2)cc1 [R2L2, 5-Chloro-3-((3,5-dimethylphenyl)sulfonyl)-N-(2-((4-methoxyphenyl)sulfonamido)ethyl)-1H-indole-2-carboxamide] | 106000 ± 23000 | 660 ± 230 | 900 ± 380 | 850 ± 35 | > 106000 | 1110 ± 170 | 1580 ± 450 | > 106000 | 1233 |
| Cc1cc(C)cc(S(=O)(=O)c2c(C(=O)NCCCCNS(=O)(=O)c3ccc([N+](=O)[O-])cc3)[nH]c3ccc(Cl)cc23)c1 [R3L4, 5-Chloro-3-((3,5-dimethylphenyl)sulfonyl)-N-(4-((4-nitrophenyl)sulfonamido)butyl)-1H-indole-2-carboxamide] | 104000 ± 31400 | 130 ± 18 | 500 ± 160 | 400 ± 110 | 870 ± 65 | 230 ± 32 | 360 ± 32 | 1880 ± 680 | 3809 |
| COc1ccc(S(=O)(=O)NCCCNC(=O)c2[nH]c3ccc(Cl)cc3c2S(=O)(=O)c2cc(C)cc(C)c2)cc1 [R2L3, 5-Chloro-3-((3,5-dimethylphenyl)sulfonyl)-N-(3-((4-methoxyphenyl)sulfonamido)propyl)-1H-indole-2-carboxamide] | 163000 ± 15300 | 320 | 660 ± 85 | 830 ± 68 | 5980 ± 310 | 250 | 970 ± 51 | > 163000 | 4354 |
| Cc1cc(C)cc(S(=O)(=O)c2c(C(=O)NCCNS(=O)(=O)c3ccc(C#N)cc3)[nH]c3ccc(Cl)cc23)c1 [R5L2, 5-Chloro-3-((3,5-dimethylphenyl)sulfonyl)-N-(2-((4-cyanophenyl)sulfonamido)ethyl)-1H-indole-2-carboxamide] | 23600 ± 580 | 770 ± 35 | 840 ± 35 | 890 ± 18 | 3070 ± 120 | 1260 | 1750 ± 53 | 3370 ± 210 | 362 |
| Cc1cc(C)cc(S(=O)(=O)c2c(C(=O)NCCCNS(=O)(=O)c3ccc(Br)cc3)[nH]c3ccc(Cl)cc23)c1 [R6L3, 5-Chloro-3-((3,5-dimethylphenyl)sulfonyl)-N-(3-((4-bromophenyl)sulfonamido)propyl)-1H-indole-2-carboxamide] | 88100 ± 18100 | 780 ± 140 | 1040 ± 190 | 1320 ± 190 | 5260 ± 1040 | 470 ± 200 | 1480 ± 110 | > 88100 | 645 |
| Cc1cc(C)cc(S(=O)(=O)c2c(C(=O)NCCCCNS(=O)(=O)c3cccs3)[nH]c3ccc(Cl)cc23)c1 [R8L4, 5-Chloro-3-((3,5-dimethylphenyl)sulfonyl)-N-(4-(thiophene-2-sulfonamido)butyl)-1H-indole-2-carboxamide] | 86500 ± 11800 | 130 ± 59 | 470 ± 69 | 540 | 1050 ± 35 | 190 ± 17 | 360 ± 35 | > 86500 | 1953 |
| Cc1cc(C)cc(S(=O)(=O)c2c(C(=O)NCCCNS(=O)(=O)c3cccc(F)c3)[nH]c3ccc(Cl)cc23)c1 [R12L3, 5-Chloro-3-((3,5-dimethylphenyl)sulfonyl)-N-(3-((3-fluorophenyl)sulfonamido)propyl)-1H-indole-2-carboxamide] | 204000 ± 10800 | 260 ± 87 | 450 ± 120 | 750 ± 210 | 3380 ± 450 | 110 ± 43 | 990 ± 140 | 4730 ± 1040 | 5799 |
| Cc1cc(C)cc(S(=O)(=O)c2c(C(=O)NCCNS(=O)(=O)c3cccnc3)[nH]c3ccc(Cl)cc23)c1 [R10L2, 5-Chloro-3-((3,5-dimethylphenyl)sulfonyl)-N-(2-(pyridine-3-sulfonamido)ethyl)-1H-indole-2-carboxamide] | 23400 ± 750 | 140 ± 46 | 290 ± 55 | 290 ± 18 | 2200 ± 400 | 120 ± 33 | 1480 ± 270 | 4600 ± 310 | 3205 |
| Cc1cc(C)cc(S(=O)(=O)c2c(C(=O)NCCCCCNS(=O)(=O)c3ccc(F)cc3)[nH]c3ccc(Cl)cc23)c1 [R4L5, 5-Chloro-3-((3,5-dimethylphenyl)sulfonyl)-N-(5-((4-fluorophenyl)sulfonamido)pentyl)-1H-indole-2-carboxamide] | 144000 ± 13200 | 74 ± 10 | 510 ± 210 | 180 ± 17 | 1670 ± 350 | 73 ± 20 | 380 ± 17 | > 31200 | 7527 |
| O=C1Nc2ccc(Cl)cc2[C@@](C#CC2CC2)(C(F)(F)F)O1 [EFV, Efavirenz, reference compound] | > 6340 | 32 ± 6 | 100 ± 19 | 7 ± 2 | 270 ± 16 | 7 ± 1 | 270 ± 48 | 480 ± 190 |  |
| Cc1cc(C#N)cc(C)c1Oc1nc(Nc2ccc(C#N)cc2)nc(N)c1Br [ETR, Etravirine, reference compound] | > 4590 | 32 ± 28 | 15 ± 12 | 58 ± 41 | 83 ± 53 | 37 ± 30 | 88 ± 76 | 150 ± 120 | >900 |
| Cc1cc(C)cc(S(=O)(=O)c2c(C(=O)NCCNS(=O)(=O)c3ccccc3F)[nH]c3ccc(Cl)cc23)c1 [R11L2, 5-Chloro-3-((3,5-dimethylphenyl)sulfonyl)-N-(2-((2-fluorophenyl)sulfonamido)ethyl)-1H-indole-2-carboxamide] | 199000 ± 8290 | 250 ± 71 | 210 ± 53 | 280 ± 36 | 2680 ± 250 | 200 ± 36 | 1230 ± 430 | 3040 ± 210 | 11,116 |
| Cc1cc(C)cc(S(=O)(=O)c2c(C(=O)NCCCNS(=O)(=O)c3ccccc3)[nH]c3ccc(Cl)cc23)c1 [R9L3, 5-Chloro-3-((3,5-dimethylphenyl)sulfonyl)-N-(3-(phenylsulfonamido)propyl)-1H-indole-2-carboxamide] | > 224000 | 180 ± 54 | 320 ± 72 | 700 ± 270 | 3080 ± 250 | 55 ± 18 | 800 ± 250 | 4760 ± 800 | >8047 |

— paper PMC10326263 (Acta Pharmaceutica Sinica. B, 2023)
